One test deals with IL23p19. Kind of test: LPS Induced IL23p19 in THP-1 Cells (with IFNγ Primed) Assay. The settings on record: Homo sapiens, IFNγ primed (50 ng/mL), LPS 1 ug/mL, 18 hours, 10 pt, read-out: IL23-p19 ELISA, THP1-IFNy, LPS, 10 pt EC50. It counts as cell-based. The source says:
LPS Induced IL23p19 in THP-1 Cells (with IFNγ Primed) Assay
THP-1 Cells (ATCC, Cat # TIB-202), Dimethyl Sulfoxide (DMSO) (Sigma-Aldrich, Cat # D2650), RPMI 1640 (Cellgro, Cat #10-040-CM), Fetal Bovine Serum (Sigma, Cat # F4135), Albumin From Bovine Serum (BSA) (Sigma-Aldrich, Cat # A7906), LPS (Serotype K-235, Sigma, Product Number L 2143), IFNγ (Peprotech, Cat #300-02)
Capture antibody: Human IL-23p19 ELISA (e-Bioscience, Cat. #14-7238-85),
Detection antibody: Primary Mouse Biotinylated anti-human IL-12(p40/p70) (e-Bioscience, Cat. #13-7129-85), Secondary HRP-conjugated Streptavidin (R&D Systems, Cat # DY998), 1×PBST Washing Buffer (PBS-Tween tablet) (VWR International, Cat #80058-558), ELISA Blocking Buffer (PBS with 1% BSA), ELISA Dilution Buffer (PBS with 1% BSA), 384 Well Flat-Bottom, MaxiSorp Black Immuno Plates (Thermo Scientific, Cat #12-565-346), 384 Well Flat-Bottom, White Tissue Culture Plates (Thermo Scientific, Cat #12-565-343), Super Signal ELISA Pico Chemiluminescent Substrate (Thermo Scientific, Cat #37070), Cell Titer Glo reagent (Promega, Cat # G7573), Positive control, IKK2VI inhibitor (Calbiochem, Cat #401483), AquaMax 4000 plate washer (Molecular Devices), Luminometer, Wallac Victor2 1420 Multilabel Counter. Method THP-1 Cells Stimulation:
On day 1, 50K/well THP-1 cells were seeded and primed with IFNγ (50 ng/mL) in 384-well plates for about 18 hours in RPMI media with 10% FBS. On day 2, the compound was serially diluted in DMSO from 5 mM in 3-fold dilutions, and then diluted 1:125 in RPMI media with 10% FBS. 50 μL/well 2× compound was added to 50 μL/well THP-1 cells (with IFNγ primed) in duplicate in 384 well tissue culture plates. The cells were pre-incubated with compound for 1 hour at 37° C., 5% CO2 before addition of 10 μL/well 11×LPS to give a final concentration of 1 ug/mL LPS. Day 3, after stimulation for 18 hours at 37° C., 5% CO2, the assay plate was centrifuged and 70 μL/well supernatant was harvested. IL-23p19 protein in 70 μL/well of supernatant was measured by sandwich ELISA, and 25 μl/well Cell Titer Glo reagent was added to the remaining cells to measure compound toxicity.
Human IL-23p19 Sandwich ELISA:
Maxisorp immuno ELISA plates were pre-coated with 25 μL/well of anti-IL-23p19 capture antibody (2.5 ug/mL) in PBS overnight at room temperature. After washing with 1×PBST, the plates were blocked using 100 μL/well of 1% BSA in PBS for 2 hours at room temperature. The plates were washed three times with 1×PBST and 70 μL/well supernatant were added. The plates were incubated at room temperature for 2 hours with shaking and washed three times with 1×PBST. 25 μL/well of biotin labeled anti-IL-12(p40/p70) detection antibody (100 ng/mL) in PBS with 1% BSA was added and the plates were incubated at room temperature for 2 hours with shaking. After washing three times with 1×PBST, 25 μL/well of streptavidin-HRP (1:200) in PBS with 1% BSA was added and the plates were incubated at room temperature for 20 minutes with shaking. The plates were washed three times with 1×PBST and 25 μL/well of Super Signal ELISA Pico Chemiluminescent Substrate were added. The plates were read with a luminometer, and the chemiluminescence values were entered into Athena (Rigel) for curve fitting, EC50 calculation, and database storage.
For orientation: An ELISA detects its analyte on a solid surface through an enzyme-linked reagent.

In the next test the test system is IL23-p19. Description: Compound screening using DC cells: LPS-induced IL-23 (p19/p40) ELISA in IFNγ-primed dendritic cells differentiated from human PBMC. The test is classed as cell-based. The conditions noted are these: Dendritic cell, human PBMC-derived dendritic cells, LPS 1 μg/ml, 18 hours, 10 pt. The protocol:
Compound Screening Using DC Cells
Human PBMC cells (400 million) obtained from the vendor were transferred into a T-175 flask containing 15 ml RPMI media (10% FBS) and incubate for 2 hours at 37° C. After 2 hours, the media including floating cells was aspirated out carefully and 12 ml of fresh RPMI media (10% FBS) containing GMCSF (100 ng/ml) and IL4 (20 ng/ml) was added, and the flask was kept in a 37° C. incubator for 7 days.
After 3 days, fresh GMCSF (100 ng/ml) and IL4 (20 ng/ml) were added to the flask and the incubation continued. After 7 days, the fully differentiated cells were harvested by spinning down (1200 rpm/5 min) and aspirating the media. The cells were suspended in fresh RPMI media (10% FBS) containing 50 ng/ml IFNγ (1000 U/ml) and then plated (50K/well in 100 μl) onto a white clear bottom 96 well plate and left in a 37° C. incubator for 24 hours.
After 24 hours incubation, 100 μl of RPMI media was added containing 2× concentrated test compound per well to the above cell-culture media (final concentration becomes 1×) and the plates were pre-incubated for 1 hour at 37° C. before stimulating with LPS.
After 1 hour compound pre-incubation, 10 μl per well of 20× concentrated LPS solution in RPMI media was added to give a final concentration of 1 μg/ml. The mixture was shaken and incubated the plates at 37° C. for an additional 18 hours.
155 μl of the supernatant was harvested from each well carefully (without the tip touching the bottom of the well) and to the remaining 50 μl/well of the cell culture plate was added 50 μl of Cell Titer Glo reagent. The mixture was incubated for 1-2 minutes on a shaker and the plate was read for luminescence intensity to determine the compound cytotoxicity. The cell culture supernatant collected above was used to carry out IL23 ELISA (65 μl—Supernatant) and IL10 ELISA (90 μl—Supernatant) as described below.
Human IL-23 (p19/p40) ELISA Protocol (e-Biosciences)
To 10.5 ml PBS add 50 μl of anti-IL23 (p19) was added capture antibody (2.5 μg/ml). The mixture was mixed well and 100 μl of the coating solution was added to each well of the 96 well white plates from Pierce. The wells were covered and incubated overnight at 4° C.
The anti-IL23 (p19)-antibody-coated plates were washed 2× using TBST (use plate washer) and blocked using 200 μl of 0.5% Casein for 1.5-2 hours at room temperature with shaking.
The plates were washed 2× using TBST and the supernatant was transferred (65 μl/well) to the above pre-blocked/IL23(p19)-antibody-coated 96 well plate, and incubated at room temperature for 1.5 hours with shaking.
The plates were washed 4× using TBST (plate washer) and 100 μl/well detection antibody solution prepared from 2 μl of biotin labeled anti-IL-12 (p40/p70) antibody in 11 ml 1% BSA/PBS solution (I-5000 dilution) was added. The plates were incubated for 1 hour with shaking at Room temperature.
Again, the plates were washed 4× with TBST and 100 μl of HRP labeled Streptavidin (R&D Systems) solution (10 μl/10 ml 1% BSA solution) was added, and the plates were incubated at room temperature for another 45 minutes with shaking.
After 45 minutes, the plates were washed with TBST 4× and 100 ul/well Super Signal ELISA Pico Chemiluminescent Substrate from Pierce (3.5 ml A+3.5 ml B+3.5 ml MQ water) was added. The plates were shaken for 1-2 minutes then read on a plate reader.

A word on the EC50: it is the midpoint of the concentration-response curve.

As to `CN1CCN(c2nc3cc(N4CCCCC4)c(NC(=O)c4csc(-c5ccc(N)nc5)n4)cc3o2)CC1` [Compound I-19, 2-(6-aminopyridin-3-yl)-N-(2-(4-methylpiperazin-1-yl)-5-(piperidin-1-yl)benzo[d]oxazol-6-yl)thiazole-4-carboxamide], the results for the EC50 in the test with IL23p19 and with IL23-p19 were 938 nM and 674 nM, respectively.

Regarding `CN1CCN(c2nc3cc(N4CCCCC4)c(NC(=O)c4csc(-c5cn[nH]c5)n4)cc3o2)CC1` [Compound I-20, N-(2-(4-methylpiperazin-1-yl)-5-(piperidin-1-yl)benzo[d]oxazol-6-yl)-2-(1H-pyrazol-4-yl)thiazole-4-carboxamide], the 50% effective concentration (EC50) stood at 22.4 nM with IL23p19 and 18 nM in the test on IL23-p19.

`CN1CCN(c2nc3cc(N4CCCCC4)c(NC(=O)c4csc(-c5cc[nH]n5)n4)cc3o2)CC1` [Compound I-21, N-(2-(4-methylpiperazin-1-yl)-5-(piperidin-1-yl)benzo[d]oxazol-6-yl)-2-(1H-pyrazol-3-yl)thiazole-4-carboxamide]: the EC50 came out at 2180 nM with IL23p19 and 1710 nM in the test with IL23-p19.

On to `Cc1cc(-c2nc(C(=O)Nc3cc4oc(N5CCN(C)CC5)nc4cc3N3CCCCC3)cs2)ccn1` [Compound I-22, N-(2-(4-methylpiperazin-1-yl)-5-(piperidin-1-yl)benzo[d]oxazol-6-yl)-2-(2-methylpyridin-4-yl)thiazole-4-carboxamide], for which the results for the EC50 with IL23p19 and in the test with IL23-p19 were 677 nM and 3180 nM, respectively.

Regarding `O=C(Nc1cc2oc(N3CCOCC3)nc2cc1N1CCC(F)CC1)c1ccc(-c2cn[nH]c2)o1` [Compound I-23, N-(5-(4-fluoropiperidin-1-yl)-2-morpholinobenzo[d]oxazol-6-yl)-5-(1H-pyrazol-4-yl)furan-2-carboxamide], the EC50 worked out at 75.7 nM with IL23p19 and 157 nM in the test with IL23-p19.

For `Cc1cc(-c2ccc(C(=O)Nc3cc4oc(N5CCOCC5)nc4cc3N3CCC(F)CC3)o2)ccn1` [Compound I-24, N-(5-(4-fluoropiperidin-1-yl)-2-morpholinobenzo[d]oxazol-6-yl)-5-(2-methylpyridin-4-yl)furan-2-carboxamide], the EC50 in the test on IL23p19 was 1080 nM; with IL23-p19, 5770 nM.

In the case of `O=C(Nc1cc2oc(N3CCOCC3)nc2cc1N1CCC(F)CC1)c1csc(-c2cn[nH]c2)n1` [Compound I-25, N-(5-(4-fluoropiperidin-1-yl)-2-morpholinobenzo[d]oxazol-6-yl)-2-(1H-pyrazol-4-yl)thiazole-4-carboxamide], the EC50 worked out at 48.2 nM in the test on IL23p19 and 122 nM in the test on IL23-p19.

For `O=C(Nc1cc2oc(N3CCOCC3)nc2cc1N1CCC(F)(F)CC1)c1ccc(-c2cn[nH]c2)o1` [Compound I-27, N-(5-(4,4-difluoropiperidin-1-yl)-2-morpholinobenzo[d]oxazol-6-yl)-5-(1H-pyrazol-4-yl)furan-2-carboxamide], the figures for the EC50 with IL23p19 and in the test with IL23-p19 were 528 nM and 747 nM, respectively.

As to `O=C(Nc1cc2oc(N3CCOCC3)nc2cc1N1CCC(F)(F)CC1)c1csc(-c2cn[nH]c2)n1` [Compound I-29, N-(5-(4,4-difluoropiperidin-1-yl)-2-morpholinobenzo[d]oxazol-6-yl)-2-(1H-pyrazol-4-yl)thiazole-4-carboxamide], the EC50 in the test on IL23p19 amounted to 302 nM; in the test with IL23-p19, 106 nM.

Consider `O=C(Nc1cc2oc(N3CCCCC3)nc2cc1N1CCCCC1)c1ccc(-c2cn[nH]c2)o1` [Compound I-31, N-(2,5-di(piperidin-1-yl)benzo[d]oxazol-6-yl)-5-(1H-pyrazol-4-yl)furan-2-carboxamide], for which the EC50 is 144 nM in the test on IL23p19 and 444 nM in the test with IL23-p19.

As to `O=C(Nc1cc2oc(N3CCCCC3)nc2cc1N1CCCCC1)c1ccc(-c2cc[nH]n2)o1` [Compound I-32, N-(2,5-di(piperidin-1-yl)benzo[d]oxazol-6-yl)-5-(1H-pyrazol-3-yl)furan-2-carboxamide], the EC50 in the test with IL23p19 came out at 1780 nM; in the test on IL23-p19 it was 24100 nM.

Take `O=C(Nc1cc2oc(N3CCCCC3)nc2cc1N1CCCCC1)c1csc(-c2cn[nH]c2)n1` [Compound I-35, N-(2,5-di(piperidin-1-yl)benzo[d]oxazol-6-yl)-2-(1H-pyrazol-4-yl)thiazole-4-carboxamide]: the EC50 in the test on IL23p19 was 321 nM; in the test with IL23-p19 it was 666 nM.

Turning to `O=C(Nc1cc2oc(N3CCOCC3)nc2cc1N1CCCC(F)C1)c1ccc(-c2cn[nH]c2)o1` (stereo not shown) [Compound I-38, N-(5-(3-fluoropiperidin-1-yl)-2-morpholinobenzo[d]oxazol-6-yl)-5-(1H-pyrazol-4-yl)furan-2-carboxamide], the EC50 in the test on IL23p19 was found to be 31.6 nM; in the test with IL23-p19, 14.1 nM.

Regarding `Cc1cc(-c2ccc(C(=O)Nc3cc4oc(N5CCOCC5)nc4cc3N3CCCC(F)C3)o2)ccn1` (stereo not shown) [Compound I-39, N-(5-(3-fluoropiperidin-1-yl)-2-morpholinobenzo[d]oxazol-6-yl)-5-(2-methylpyridin-4-yl)furan-2-carboxamide], the EC50 with IL23p19 was 355 nM; in the test on IL23-p19, 8070 nM.
